Test results taken from patent publication US20160166560A1, “Urea Compounds and Their Use as FAAH Enzyme Inhibitors” (BIAL-PORTELA & Cª, S.A., priority 2013, published 2016).
Counter-ions that a name gives are not always drawn.

Legend:
CYPs = CYPs metabolic stability assay in HLM (human liver microsomes); type: in vitro ADME; settings: HLM 1 mg/ml protein, compound 5 μM, 60 min, 37° C.; for Control (% remain): absence of NADPH; for CYP+ (% remain): with NADPH 1 mM
Protocol: Stability of the test compounds was performed in HLM (human liver microsomes) in the presence and in the absence of NADPH.
The stability was measured using the incubation mixture (100 μl total volume) contained 1 mg/ml total protein, MgCl2 5 mM and 50 mM K-phosphate buffer. Samples were incubated in the presence and in the absence of NADPH 1 mM. Reactions were pre-incubated 5 min and the reaction initiated with the compound under test (at a concentration of 5 μM). Samples were incubated for 60 min in a shaking water bath at 37° C. The reaction was stopped by adding 100 μl of acetonitrile. Samples were then centrifuged, filtered and supematant injected in HLPC-MSD. Test compounds were dissolved in DMSO and the final concentration of DMSO in the reaction was below 0.5% (v/v). At T0 acetonitrile was added before adding the compound. All experiments were performed with samples in duplicate.

FAAH [1] = target: T1, FAAH (Mus musculus, UniProt O08914); assay: In vitro/ex vivo FAAH activity determination in brain after intra-tracheal instillation; design: Liver and brain fragments were removed and processed for enzymatic activity determination; from tissue; species or system male NMRI mice; settings: remaining enzymatic activity vs controls, 1 mg/kg intra-tracheal instillation, sacrificed after 8 h
T1 sequence (O08914 1-579): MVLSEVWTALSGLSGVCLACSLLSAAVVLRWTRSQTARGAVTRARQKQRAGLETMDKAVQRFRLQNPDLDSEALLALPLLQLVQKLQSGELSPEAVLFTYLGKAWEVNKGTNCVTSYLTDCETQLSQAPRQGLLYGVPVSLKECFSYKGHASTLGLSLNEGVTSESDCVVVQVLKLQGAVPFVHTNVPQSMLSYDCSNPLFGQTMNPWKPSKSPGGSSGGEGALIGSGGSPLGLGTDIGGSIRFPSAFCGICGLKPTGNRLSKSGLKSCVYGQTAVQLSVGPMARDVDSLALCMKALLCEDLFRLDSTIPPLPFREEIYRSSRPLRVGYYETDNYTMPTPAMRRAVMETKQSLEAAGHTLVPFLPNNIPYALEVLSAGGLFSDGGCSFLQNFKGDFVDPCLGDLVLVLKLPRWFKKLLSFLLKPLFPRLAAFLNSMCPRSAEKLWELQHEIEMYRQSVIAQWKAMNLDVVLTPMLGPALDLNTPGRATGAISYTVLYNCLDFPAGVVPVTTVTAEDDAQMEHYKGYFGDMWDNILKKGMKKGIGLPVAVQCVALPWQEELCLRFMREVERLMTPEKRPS
Protocol: (§1) To evaluate the selectivity of test compounds in inhibiting FAAH activity, male NMRI mice were administrated following instillation with 1 mg/kg compound and were sacrificed after 8 h treatment. Liver and brain fragments were removed and processed for enzymatic activity determination.
(§2) FAAH activity was measured as the amount of ^3H-ethanolamine formed, by liquid scintillation counting, from the hydrolysis of the substrate anandamide (AEA, labeled with ^3H on the ethanolamine part of the molecule). The percentage of remaining enzymatic activity was calculated in respect to controls and after blank subtraction. Therefore, a low value for the test compounds indicates a strong inhibitor.
(§3) Male NMRI mice (body weight range: 25-35 g) were obtained from Harlan Laboratories (Barcelona, Spain). Animals were kept 10 per cage, under controlled environmental conditions (12 hr light [8 am]/12 hr dark [8 pm]cycle; room temperature 22±1° C.). Food and tap water were allowed ad libitum. Animals were habituated to the animal facilities at least for a week prior to experiments. The experiments were all carried out during daylight hours.
(§4) Animals were fasted overnight before administration of compounds. […] After administration the animals were given atipamezole (1 mg/kg) to reverse the sedative and analgesic effects induced by the anaesthesia.
(§5) Fifteen minutes before sacrifice, animals were anesthetized with pentobarbital 60 mg/kg administrated intra-peritoneally. The brain (without cerebellum) and a fragment of liver were collected into plastic vials containing membrane buffer (3 mM MgCl2, 1 mM EDTA, 50 mM Tris HCl, pH 7.4). Glass beads (2.5 mm BioSpec Products, Bartlesville, Okla., USA) were added to the vials containing the brain and liver tissues. Tissues were stored at −20° C. until analysis.
(§6) Anandamide [ethanolamine-1-^3H-] was obtained from American Radiochemicals—with a specific activity of 60 Ci/mmol. All other reagents were obtained from Sigma-Aldrich. Optiphase Supermix was obtained from Perkin Elmer.
(§7) Brain and liver tissues were thawed and homogenized in 10 volumes of membrane buffer (3 mM MgCl2, 1 mM EDTA, 50 mM Tris HCl, pH 7.4) with homogenizer Precellys 24 Dual Tissue Homogenizer (Bertin Technologies) for 2 cycles of 5 sec (5000 rpm).
(§8) Total protein in the tissue homogenates was determined with the BioRad Protein Assay (BioRad) using a standard curve of BSA ([…]). Tissue homogenates were diluted to appropriate concentration for enzymatic determination in assay buffer (1 mM EDTA, 10 mM Tris HCl, pH 7.6).
(§9) Reaction mix (total volume 200 μL) contained 2 μM AEA (2 μM AEA+5 nM ^3H-AEA), 0.1% fatty acid free BSA, 15 μg (brain) or 5 μg (liver) protein, in assay buffer (1 mM EDTA, 10 mM Tris pH 7.6).
(§10) The test compound was used at a level of 1 mg/kg protein. After 15 minutes pre-incubation at 37° C. of the protein sample, reaction was started by the addition of the substrate solution (cold AEA+radiolabelled AEA+BSA). Reaction was carried out for 12 minutes for brain and liver tissues. Reaction was terminated by addition of 400 μL chloroform:methanol (1:1, v/v) solution. Reaction samples were vortex twice, left on ice for 5 minutes and then centrifuged in the microfuge for 7 minutes, 7000 rpm. 200 μL of the obtained supernatants were added to […] Optiphase Supermix scintillation cocktail previously distributed in 24-well plates.
(§11) Counts per minute (cpm) were determined in a Microbeta TriLux scintillation counter. In each assay blank samples (without protein) were prepared.

FAAH [2] = target: T1, FAAH; assay: In vitro/ex vivo FAAH activity determination in liver after intra-tracheal instillation; design: Liver and brain fragments were removed and processed for enzymatic activity determination; from tissue; host or cells: mouse liver fragment homogenate; species or system male NMRI mice; settings: remaining enzymatic activity vs controls, 1 mg/kg intra-tracheal instillation, sacrificed after 8 h
Protocol: as §1, §2, §3, §4, §5, §6, §7, §8, §9, §10, §11

Control (% remain) (CYPs)	CYP+ (% remain) (CYPs)	FAAH Activity - Brain itc (% C) (FAAH [1])	FAAH Activity - Liver itc (% C) (FAAH [2])	FAAH Activity - Brain itc (% C) (FAAH [1]; hydrochloride, 1 mg/kg)	FAAH Activity - Liver itc (% C) (FAAH [2]; hydrochloride, 1 mg/kg)	Control (% remain) (CYPs; methanesulfonate)	CYP+ (% remain) (CYPs; methanesulfonate)	FAAH Activity - Brain itc (% C) (FAAH [1]; methanesulfonate, 1 mg/kg)	FAAH Activity - Liver itc (% C) (FAAH [2]; methanesulfonate, 1 mg/kg)	SMILES
102.5	62.8	107.2	3.9							COc1cc(CN2CCC(N(C)C(=O)n3cnc(-c4cccc(OS(N)(=O)=O)c4)c3)CC2)cc(OC)c1.Cl [Example 9, 3-(1-((1-(3,5-dimethoxybenzyl)piperidin-4-yl)(methyl)carbamoyl)-1H-imidazol-4-yl)phenyl sulfamate hydrochloride]
100.0	5.8	113.4	3.2							COc1cc(CN2CCC(N(C)C(=O)n3cnc(-c4cccc(OS(N)(=O)=O)c4)c3)CC2)ccc1F [Example 10, 3-(1-((1-(4-fluoro-3-methoxybenzyl)piperidin-4-yl)(methyl)carbamoyl)-1H-imidazol-4-yl)phenyl sulfamate hydrochloride]
100.0	5.9	84.2	4.4							COc1cccc(CN2CCC(N(C)C(=O)n3cnc(-c4cccc(OS(N)(=O)=O)c4)c3)CC2)c1.Cl [Example 11, 3-(1-((1-(3-methoxybenzyl)piperidin-4-yl)(methyl)carbamoyl)-1H-imidazol-4-yl)phenyl sulfamate hydrochloride]
106.2	7.9	108.7	3.8							COc1cc(CN2CCC(N(C)C(=O)n3cnc(-c4ccc(OS(N)(=O)=O)cc4)c3)CC2)ccc1F [Example 12, 4-(1-((1-(4-fluoro-3-methoxybenzyl)piperidin-4-yl)(methyl)carbamoyl)-1 H-imidazol-4-yl)phenyl sulfamate oxalate]
100.9	68.6	89.3	6.0							COc1cccc(CN2CCC(N(C)C(=O)n3cnc(-c4ccc(OS(N)(=O)=O)cc4)c3)CC2)c1 [Example 14, 4-(1-((1-(3-methoxybenzyl)piperidin-4-yl)(methyl)carbamoyl)-1H-imidazol-4-yl)phenyl sulfamate hydrochloride]
94.4	87.1	91.1	3.0							CN(C(=O)n1cnc(-c2cccc(OS(N)(=O)=O)c2)c1)C1CCN(c2ccc(O)cc2)CC1 [Example 15, 3-(1-((1-(4-hydroxyphenyl)piperidin-4-yl)(methyl)carbamoyl)-1H-imidazol-4-yl)phenyl sulfamate hydrochloride]
101.4	17.0			96.9	4.5					CN(C(=O)n1cnc(-c2cccc(NC(N)=O)c2)c1)C1CCN(Cc2ccccc2)CC1 [Example 16, N-(1-benzylpiperidin-4-yl)-N-methyl-4-(3-ureidophenyl)-1H-imidazole-1-carboxamide hydrochloride]
97.6	76.8	93.3	3.4							CN(C(=O)n1cnc(-c2cccc(NC(N)=O)c2)c1)C1CCN(Cc2ccc3c(c2)OCO3)CC1.Cl [Example 18, N-(1-(benzo[d][1,3]dioxol-5-ylmethyl)piperidin-4-yl)-N-methyl-4-(3-ureidophenyl)-1H-imidazole-1-carboxamide hydrochloride]
91.5	76.2	92.6	5.7							CN(C(=O)n1cnc(-c2cccc(NS(C)(=O)=O)c2)c1)C1CCN(c2ccc(O)cc2)CC1 [Example 24, N-(1-(4-hydroxyphenyl)piperidin-4-yl)-N-methyl-4-(3-(methylsulfonamido)phenyl)-1H-imidazole-1-carboxamide hydrochloride]
61.5	49.1	100.7	9.0							CN(C(=O)n1cnc(-c2cccc(NC(N)=O)c2)c1)C1CCN(c2ccc(O)cc2)CC1 [Example 25, N-(1-(4-hydroxyphenyl)piperidin-4-yl)-N-methyl-4-(3-ureidophenyl)-1 H-imidazole-1-carboxamide hydrochloride]
97.7	81.4	124.3	12.4							COc1ccc(CN2CCC(N(C)C(=O)n3cnc(-c4cccc(NC(N)=O)c4)c3)CC2)cc1OC [Example 26, N-(1-(3,4-dimethoxybenzyl)piperidin-4-yl)-N-methyl-4-(3-ureidophenyl)-1H-imidazole-1-carboxamide hydrochloride]
						96.9	26.7	84.3	13.9	COc1cc(CN2CCC(N(C)C(=O)n3cnc(-c4ccc(OS(N)(=O)=O)cc4)c3)CC2)cc(OC)c1 [Example 27, 4-(1-((1-(3,5-dimethoxybenzyl)piperidin-4-yl)(methyl)carbamoyl)-1H-imidazol-4-yl)phenyl sulfamate methanesulfonate]
